# What was measured:
# [1] = target: hMRGX2 (CHO-K1 cells overexpressing MRGX2) (Homo sapiens (Human), UniProt Q96LB1); assay: In vitro inhibition (EC50) of intracellular calcium flux, FLIPR Tetra, substance P stimulation; format: cell-based; details: stimulated with MRGX2 ligand substance P, FLIPR Calcium 5, read-out: hMRGX2 Cellular Potency (pEC50) (converted)
# How it was run: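 CHO-K1 cells overexpressing human MRGX2, loaded with Calcium 5 dye for 30 min at 37 °C, then given compound (11-point, top 10 μM).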
# human MRGX2 receptor = human MRGX2 receptor (Homo sapiens (Human), UniProt Q96LB1); assay: In vitro radioligand binding assay (Kd); details: membrane from SF9 cells overexpressing human MRGX2; 3H-labeled ligand; pH 7.4, room temperature, 60 minutes
# Protocol: In vitro Radioligand Binding Assay (Kd)
# Equilibrium dissociation constants, Kd, for many of the compounds described in the Examples section (“test compounds”) are determined in the presence cellular membrane prepared from SF9 cell lines overexpressing the human MRGX2 receptor. The assay is carried out in a 96-well plate (Greiner V-Bottom #651201). […] The assay mixtures, which comprise MRGX2 receptor, radiolabeled ligand and test compound, are incubated at room temperature (˜22° C.) for 60 minutes to reach equilibrium. After incubation, the assay mixtures are collected on a filter mat (Filtermat A, Perkin Elmer) using a cell harvester (Harvester 96, TOMTEC). The filter mat is completely dried. A solid scintillant (Meltilex, Perkin Elmer) is added to each filter membrane and the level of radioactivity (“Signal”) from each well (assay mixture) is recorded using a scintillation counter (Trilux Microbeta, PerkinElmer). Kd is determined by curve-fitting the dose response data ([I], Signal) for each set of samples to the equation,
# [formula] where [I] is the concentration of the test compound. The data are reported as pKd
# Sequence of human MRGX2 receptor (Q96LB1 whole entry): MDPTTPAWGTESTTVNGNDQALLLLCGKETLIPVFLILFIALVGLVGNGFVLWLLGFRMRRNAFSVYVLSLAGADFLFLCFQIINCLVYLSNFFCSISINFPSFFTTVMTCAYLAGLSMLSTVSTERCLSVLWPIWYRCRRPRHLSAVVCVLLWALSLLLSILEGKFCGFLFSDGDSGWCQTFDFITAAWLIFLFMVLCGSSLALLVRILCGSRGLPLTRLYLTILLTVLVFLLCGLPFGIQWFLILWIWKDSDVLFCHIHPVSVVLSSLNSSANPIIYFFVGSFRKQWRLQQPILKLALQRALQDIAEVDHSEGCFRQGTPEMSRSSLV
# Sequence of hMRGX2 (CHO-K1 cells overexpressing MRGX2) (Q96LB1 whole entry): as above
Compound,EC50 [1],hMRGX2 Binding Affinity (pKd) (human MRGX2 receptor)
"CNC1=NS(=O)(=O)c2cccc(-c3cccc(F)c3Cl)c2N1 [Example 1, 5-(2-chloro-3-fluorophenyl)-3-(methylamino)-4H-benzo[e][1,2,4]thiadiazine 1,1-dioxide]",69.3 nM,6.724
"COCCNC1=NS(=O)(=O)c2cccc(-c3cccc(F)c3Cl)c2N1 [Example 2, 5-(2-chloro-3-fluorophenyl)-3-((2-methoxyethyl)amino)-4H-benzo[e][1,2,4]thiadiazine 1,1-dioxide]",51.9 nM,6.984
"COCCNC1=NS(=O)(=O)c2cc(F)cc(-c3cccc(F)c3Cl)c2N1 [Example 4, 5-(2-chloro-3-fluorophenyl)-7-fluoro-3-((2-methoxyethyl)amino)-4H-benzo[e][1,2,4]thiadiazine 1,1-dioxide]",15.4 nM,6.975
"CCNC1=NS(=O)(=O)c2cc(F)cc(-c3cccc(F)c3Cl)c2N1 [Example 6, 5-(2-chloro-3-fluorophenyl)-3-(ethylamino)-7-fluoro-4H-benzo[e][1,2,4]thiadiazine 1,1-dioxide]",21.6 nM,6.78
"O=S1(=O)N=C(NCC2CC2)Nc2c(-c3cccc(F)c3Cl)cc(F)cc21 [Example 7, 5-(2-chloro-3-fluorophenyl)-3-((cyclopropylmethyl)amino)-7-fluoro-4H-benzo[e][1,2,4]thiadiazine 1,1-dioxide]",23.3 nM,7.27
"O=S1(=O)N=C(NCc2ncccc2F)Nc2c(-c3cccc(F)c3Cl)cccc21 [Example 12, 5-(2-chloro-3-fluorophenyl)-3-(((3-fluoropyridin-2-yl)methyl)amino)-4H-benzo[e][1,2,4]thiadiazine 1,1-dioxide]",13.6 nM,7.45
"O=S1(=O)N=C(NCc2ncccc2F)Nc2c(-c3ccccc3Cl)cc(F)cc21 [Example 16, 5-(2-chlorophenyl)-7-fluoro-3-(((3-fluoropyridin-2-yl)methyl)amino)-4H-benzo[e][1,2,4]thiadiazine 1,1-dioxide]",10.3 nM,7.5
"O=S1(=O)N=C(NCc2ncco2)Nc2c(-c3cccc(F)c3Cl)cccc21 [Example 28, 5-(2-chloro-3-fluorophenyl)-3-((oxazol-2-ylmethyl)amino)-4H-benzo[e][1,2,4]thiadiazine 1,1-dioxide]",24.1 nM,7.03
"O=S1(=O)N=C(NCC(F)F)Nc2c(-c3cccc(F)c3Cl)cccc21 [Example 34, 5-(2-chloro-3-fluorophenyl)-3-((2,2-difluoroethyl)amino)-4H-benzo[e][1,2,4]thiadiazine 1,1-dioxide]",38.5 nM,7.025
"COCCNC1=NS(=O)(=O)c2cccc(-c3ccccc3Cl)c2N1 [Example 35, 5-(2-chlorophenyl)-3-((2-methoxyethyl)amino)-4H-benzo[e][1,2,4]thiadiazine 1,1-dioxide]",92 nM,4.7
"CCNC1=NS(=O)(=O)c2cccc(-c3cccc(F)c3Cl)c2N1 [Example 39, 5-(2-chloro-3-fluorophenyl)-3-(ethylamino)-4H-benzo[e][1,2,4]thiadiazine 1,1-dioxide]",52 nM,7.055
"CNC1=NS(=O)(=O)c2cccc(-c3ccccc3Cl)c2N1 [Example 43, 5-(2-chlorophenyl)-3-(methylamino)-4H-benzo[e][1,2,4]thiadiazine 1,1-dioxide]",102 nM,6.47
"O=S1(=O)N=C(NCc2nccs2)Nc2c(-c3cccc(F)c3Cl)cccc21 [Example 65, 5-(2-chloro-3-fluorophenyl)-3-((thiazol-2-ylmethyl)amino)-4H-benzo[e][1,2,4]thiadiazine 1,1-dioxide]",10.7 nM,7.055
"O=S1(=O)N=C(NCc2ncccn2)Nc2c(-c3cccc(F)c3Cl)cccc21 [Example 66, 5-(2-chloro-3-fluorophenyl)-3-((pyrimidin-2-ylmethyl)amino)-4H-benzo[e][1,2,4]thiadiazine 1,1-dioxide]",29.4 nM,7.22
"CNC1=NS(=O)(=O)c2cccc(-c3cccc(F)c3C#N)c2N1 [Example 89, 2-fluoro-6-(3-(methylamino)-1,1-dioxido-4H-benzo[e][1,2,4]thiadiazin-5-yl)benzonitrile]",69.2 nM,6.35
"Cc1nn(C)cc1-c1cccc2c1NC(Nc1ccc(C(C)C)cc1)=NS2(=O)=O [Example 103, 5-(1,3-dimethyl-1H-pyrazol-4-yl)-3-((4-isopropylphenyl)amino)-4H-benzo[e][1,2,4]thiadiaazne 1,1-dioxide]",51.2 nM,6.755
"CC(C)c1ccc(NC2=NS(=O)(=O)c3cccc(-c4cnn(C5CCC5)c4)c3N2)cc1 [Example 105, 5-(1-cyclobutyl-1H-pyrazol-4-yl)-3-((4-isopropylphenyl)amino)-4H-benzo[e][1,2,4]thiadiazine 1,1-dioxide]",119 nM,6.06
"CC(C)c1ccc(NC2=NS(=O)(=O)c3cccc(-c4cnn(C)c4)c3N2)cc1 [Example 107, 3-((4-isopropylphenyl)amino)-5-(1-methyl-1H-pyrazol-4-yl)-4H-benzo[e][1,2,4]thiadiazine 1,1-dioxide]",132 nM,6.52
"CC(C)c1ccc(NC2=NS(=O)(=O)c3cccc(C4CC4)c3N2)cc1 [Example 109, 5-cyclopropyl-3-((4-isopropylphenyl)amino)-4H-benzo[e][1,2,4]thiadiazine 1,1-dioxide]",106 nM,6.575
"Cc1c(-c2cccc3c2NC(Nc2ccc(C(C)C)cc2)=NS3(=O)=O)cnn1C [Example 114, 5-(1,5-dimethyl-1H-pyrazol-4-yl)-3-((4-isopropylphenyl)amino)-4H-benzo[e][1,2,4]thiadiazine 1,1-dioxide]",262 nM,6.095
"COCCNC1=NS(=O)(=O)c2cccc(-c3cccc(F)c3C#N)c2N1 [Example 125, 2-fluoro-6-(3-((2-methoxyethyl)amino)-1,1-dioxido-4H-benzo[e][1,2,4]thiadiazin-5-yl)benzonitrile]",78.2 nM,6.545
"CCc1ccc(NC2=NS(=O)(=O)c3cccc(-c4cnn(C)c4)c3N2)cc1 [Example 136, 3-((4-ethylphenyl)amino)-5-(1-methyl-1H-pyrazol-4-yl)-4H-benzo[e][1,2,4]thiadiazine 1,1-dioxide]",119 nM,6.535
"Cc1ccccc1-c1cccc2c1NC(NCc1ccco1)=NS2(=O)=O [Example 137, 3-((furan-2-ylmethyl)amino)-5-(o-tolyl)-4H-benzo[e][1,2,4]thiadiazine 1,1-dioxide]",79.1 nM,6.54
"COCCNC1=NS(=O)(=O)c2cccc(-c3cc(F)cc(F)c3F)c2N1 [Example 168, 3-((2-methoxyethyl)amino)-5-(2,3,5-trifluorophenyl)-4H-benzo[e][1,2,4]thiadiazine 1,1-dioxide]",470 nM,
"COCCNC1=NS(=O)(=O)c2cccc(-c3ccc(F)c(F)c3C)c2N1 [Example 170, 5-(3,4-difluoro-2-methylphenyl)-3-((2-methoxyethyl)amino)-4H-benzo[e][1,2,4]thiadiazine, 1,1-dioxide]",638 nM,
